Measurements: patent US8802597B2, “Herbicidal pyrimidines” (E I du Pont de Nemours and Company, priority 2003, dated 2014)
Like-named read-outs stand apart in the source and are kept apart here.

Legend:
Assay type in all cases: in vivo
[1] = test system: barnyardgrass (Echinochloa crus-galli); assay: Test A pre/postemergence
Procedure, shortened: (§1)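 Visual injury scored 0–100 (0 = no effect, 100 = complete control) against untreated controls after about ten days in the greenhouse. Compounds, formulated in non-phytotoxic solvent plus surfactant, were applied preemergence as a directed soil spray and postemergence at the 1- to 2-leaf stage (2–10 cm).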

[2] = test system: crabgrass (Digitaria sanguinalis); assay: Test A pre/postemergence
Procedure, shortened: as §1

[3] = test system: giant foxtail (Setaria faberi); assay: Test A pre/postemergence
Procedure, shortened: as §1

[4] = test system: morningglory (Ipomoea spp.); assay: Test A pre/postemergence
Procedure, shortened: as §1

[5] = test system: redroot pigweed (Amaranthus retroflexus); assay: Test A pre/postemergence
Procedure, shortened: as §1

[6] = test system: velvetleaf (Abutilon theophrasti); assay: Test A pre/postemergence
Procedure, shortened: as §1

[7] = test system: giant foxtail (Setaria faberii); assay: Test C pre/postemergence
Procedure, shortened: (§2)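 Seeds sown and sprayed preemergence with test compound in non-phytotoxic solvent containing surfactant; postemergence sprays, same formulation, went onto plants 2 to 18 cm tall (1- to 4-leaf stage). Plants held in greenhouse 12 to 14 days, then visually rated against untreated controls on a 0–100 scale (0 no effect, 100 complete control).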

[8] = test system: goosegrass (Eleusine indica); assay: Test C pre/postemergence
Procedure, shortened: as §2

[9] = test system: lambsquarters (Chenopodium album); assay: Test C pre/postemergence
Procedure, shortened: as §2

[10] = test system: velvetleaf (Abutilon theophrasti); assay: Test C pre/postemergence; settings: for Plant response rating, Velvetleaf: Preemergence, scale 0 to 100, 0 no effect, 100 complete control
Procedure, shortened: as §2

[11] = test system: chickweed (Stellaria media); assay: Test C postemergence
Procedure, shortened: as §2

[12] = Postemergence, 125 g ai/ha, 0 to 100 scale (0 no effect, 100 complete control)
[13] = Postemergence, 500 g ai/ha, 0 to 100 scale (0 no effect, 100 complete control)
[14] = Preemergence, 125 g ai/ha, 0 to 100 scale where 0 is no effect and 100 is complete control, approximately ten days
[15] = Preemergence, 500 g ai/ha, 0 to 100 scale where 0 is no effect and 100 is complete control, approximately ten days
[16] = Preemergence, 31 g ai/ha, scale 0 to 100, 0 no effect, 100 complete control
[17] = Preemergence, 62 g ai/ha, scale 0 to 100, 0 no effect, 100 complete control
[18] = Preemergence, 125 g ai/ha, scale 0 to 100
[19] = Postemergence, 125 g ai/ha, scale 0 to 100 (0 no effect, 100 complete control)

## Nc1nc(C2CC2)nc(C(=O)O)c1Cl [Compound 135, 6-amino-5-chloro-2-cyclopropyl-4-pyrimidinecarboxylic acid]
[1]; [12]
  Plant response rating, Barnyardgrass: 75
[1]; [13]
  Plant response rating, Barnyardgrass: 90
[1]; [14]
  Plant response rating, Barnyardgrass: 65
[1]; [15]
  Plant response rating, Barnyardgrass: 90
[2]; [12]
  Plant response rating, Crabgrass: 65
[2]; [13]
  Plant response rating, Crabgrass: 65
[2]; [14]
  Plant response rating, Crabgrass: 75
[2]; [15]
  Plant response rating, Crabgrass: 95
[3]; [12]
  Plant response rating, Foxtail, Giant: 75
[3]; [13]
  Plant response rating, Foxtail, Giant: 80
[3]; [14]
  Plant response rating, Foxtail, Giant: 30
[3]; [15]
  Plant response rating, Foxtail, Giant: 85
[4]; [12]
  Plant response rating, Morningglory: 90
[4]; [13]
  Plant response rating, Morningglory: 100
[4]; [14]
  Plant response rating, Morningglory: 95
[4]; [15]
  Plant response rating, Morningglory: 100
[5]; [12]
  Plant response rating, Pigweed: 90
[5]; [13]
  Plant response rating, Pigweed: 95
[5]; [14]
  Plant response rating, Pigweed: 85
[5]; [15]
  Plant response rating, Pigweed: 100
[6]; [12]
  Plant response rating, Velvetleaf: 85
[6]; [13]
  Plant response rating, Velvetleaf: 100
[6]; [14]
  Plant response rating, Velvetleaf: 80
[6]; [15]
  Plant response rating, Velvetleaf: 100
[7]; [16]
  Plant response rating, Foxtail, Giant: 0
[7]; [17]
  Plant response rating, Foxtail, Giant: 0
[7]; [18]
  Plant response rating, Foxtail, Giant: 0
[7]; Setaria faberi, post-emergence, Postemergence, 125 g ai/ha, scale 0 to 100 (0 no effect, 100 complete control), read-out: Foxtail, Giant plant response rating
  pest or weed control at 125 g/ha: 75%
[7]; Setaria faberi, post-emergence, Postemergence, 16 g ai/ha, read-out: Plant response rating (scale of 0 to 100), Foxtail, Giant
  pest or weed control at 16 g/ha: 10%
[7]; Setaria faberi, post-emergence, Postemergence, 31 g ai/ha, read-out: Plant response rating (scale of 0 to 100), Foxtail, Giant
  pest or weed control at 31 g/ha: 60%
[7]; Setaria faberi, post-emergence, Postemergence, 62 g ai/ha, read-out: Plant response rating (scale of 0 to 100), Foxtail, Giant
  pest or weed control at 62 g/ha: 65%
[7]; Setaria faberi, pre-emergence, Preemergence, 16 g ai/ha, scale 0 to 100, 0 no effect, 100 complete control, read-out: Plant response rating, Foxtail, Giant
  pest or weed control at 16 g/ha: 0%
[8]; Eleusine indica, post-emergence, Postemergence, 16 g ai/ha, read-out: Plant response rating (scale of 0 to 100), Goosegrass
  pest or weed control at 16 g/ha: 5%
[8]; Eleusine indica, post-emergence, Postemergence, 31 g ai/ha, read-out: Plant response rating (scale of 0 to 100), Goosegrass
  pest or weed control at 31 g/ha: 35%
[8]; Eleusine indica, post-emergence, Postemergence, 62 g ai/ha, read-out: Plant response rating (scale of 0 to 100), Goosegrass
  pest or weed control at 62 g/ha: 45%
[8]; Eleusine indica, post-emergence, Postemergence, 125 g ai/ha, scale 0 to 100 (0 no effect, 100 complete control), read-out: Goosegrass plant response rating
  pest or weed control at 125 g/ha: 55%
[8]; Eleusine indica, pre-emergence, Preemergence, 16 g ai/ha, scale 0 to 100, 0 no effect, 100 complete control, read-out: Plant response rating, Goosegrass
  pest or weed control at 16 g/ha: 0%
[8]; [16]
  Plant response rating, Goosegrass: 0
[8]; [17]
  Plant response rating, Goosegrass: 0
[8]; [18]
  Plant response rating, Goosegrass: 40
[9]; Chenopodium album, post-emergence, Postemergence, 16 g ai/ha, read-out: Plant response rating (scale of 0 to 100), Lambsquarters
  pest or weed control at 16 g/ha: 60%
[9]; Chenopodium album, post-emergence, Postemergence, 31 g ai/ha, read-out: Plant response rating (scale of 0 to 100), Lambsquarters
  pest or weed control at 31 g/ha: 90%
[9]; Chenopodium album, post-emergence, Postemergence, 62 g ai/ha, read-out: Plant response rating (scale of 0 to 100), Lambsquarters
  pest or weed control at 62 g/ha: 90%
[9]; Chenopodium album, post-emergence, Postemergence, 125 g ai/ha, scale 0 to 100 (0 no effect, 100 complete control), read-out: Lambsquarters plant response rating
  pest or weed control at 125 g/ha: 95%
[9]; Chenopodium album, pre-emergence, Preemergence, 16 g ai/ha, scale 0 to 100, 0 no effect, 100 complete control, read-out: Plant response rating, Lambsquarters
  pest or weed control at 16 g/ha: 0%
[9]; Chenopodium album, pre-emergence, Preemergence, 62 g ai/ha, scale 0 to 100, 0 no effect, 100 complete control, read-out: Plant response rating, Lambsquarters
  pest or weed control at 62 g/ha: 70%
[9]; [16]
  Plant response rating, Lambsquarters: 70
[9]; [18]
  Plant response rating, Lambsquarters: 90
[10]; Abutilon theophrasti, post-emergence, Postemergence, 16 g ai/ha, read-out: Plant response rating (scale of 0 to 100), Velvetleaf
  pest or weed control at 16 g/ha: 55%
[10]; Abutilon theophrasti, post-emergence, Postemergence, 31 g ai/ha, read-out: Plant response rating (scale of 0 to 100), Velvetleaf
  pest or weed control at 31 g/ha: 90%
[10]; Abutilon theophrasti, post-emergence, Postemergence, 125 g ai/ha, scale 0 to 100 (0 no effect, 100 complete control), read-out: Velvetleaf plant response rating
  pest or weed control at 125 g/ha: 95%
[10]; 16 g ai/ha
  Plant response rating, Velvetleaf: 60
[10]; 31 g ai/ha
  Plant response rating, Velvetleaf: 85
[10]; 62 g ai/ha
  Plant response rating, Velvetleaf: 90
[11]; Stellaria media, post-emergence, 16 g ai/ha, read-out: Plant response rating (scale of 0 to 100), Chickweed
  pest or weed control at 16 g/ha: 0%
[11]; Stellaria media, post-emergence, 31 g ai/ha, read-out: Plant response rating (scale of 0 to 100), Chickweed
  pest or weed control at 31 g/ha: 15%
[11]; Stellaria media, post-emergence, 62 g ai/ha, read-out: Plant response rating (scale of 0 to 100), Chickweed
  pest or weed control at 62 g/ha: 25%
[11]; Stellaria media, post-emergence, 125 g ai/ha, scale 0 to 100 (0 no effect, 100 complete control), read-out: Chickweed plant response rating
  pest or weed control at 125 g/ha: 85%

## COC(=O)c1nc(-c2ccc(Cl)cc2)nc(N)c1Br [Compound 83]
[1]; [12]
  Plant response rating, Barnyardgrass: 0
[1]; [13]
  Plant response rating, Barnyardgrass: 10
[1]; [14]
  Plant response rating, Barnyardgrass: 0
[1]; [15]
  Plant response rating, Barnyardgrass: 5
[2]; [12]
  Plant response rating, Crabgrass: 0
[2]; [13]
  Plant response rating, Crabgrass: 10
[2]; [14]
  Plant response rating, Crabgrass: 0
[2]; [15]
  Plant response rating, Crabgrass: 5
[3]; [12]
  Plant response rating, Foxtail, Giant: 0
[3]; [13]
  Plant response rating, Foxtail, Giant: 10
[3]; [14]
  Plant response rating, Foxtail, Giant: 0
[3]; [15]
  Plant response rating, Foxtail, Giant: 0
[4]; [12]
  Plant response rating, Morningglory: 55
[4]; [13]
  Plant response rating, Morningglory: 75
[4]; [14]
  Plant response rating, Morningglory: 0
[4]; [15]
  Plant response rating, Morningglory: 10
[5]; [12]
  Plant response rating, Pigweed: 70
[5]; [13]
  Plant response rating, Pigweed: 85
[5]; [14]
  Plant response rating, Pigweed: 20
[5]; [15]
  Plant response rating, Pigweed: 50
[6]; [12]
  Plant response rating, Velvetleaf: 90
[6]; [13]
  Plant response rating, Velvetleaf: 90
[6]; [14]
  Plant response rating, Velvetleaf: 15
[6]; [15]
  Plant response rating, Velvetleaf: 30
[7]; Postemergence, 16 g ai/ha
  Plant response rating (scale of 0 to 100), Foxtail, Giant: 0
[7]; Postemergence, 31 g ai/ha
  Plant response rating (scale of 0 to 100), Foxtail, Giant: 0
[7]; Postemergence, 62 g ai/ha
  Plant response rating (scale of 0 to 100), Foxtail, Giant: 20
[7]; [19]
  Foxtail, Giant plant response rating: 40
[8]; Postemergence, 16 g ai/ha
  Plant response rating (scale of 0 to 100), Goosegrass: 10
[8]; Postemergence, 31 g ai/ha
  Plant response rating (scale of 0 to 100), Goosegrass: 10
[8]; Postemergence, 62 g ai/ha
  Plant response rating (scale of 0 to 100), Goosegrass: 30
[8]; [19]
  Goosegrass plant response rating: 45
[9]; Postemergence, 16 g ai/ha
  Plant response rating (scale of 0 to 100), Lambsquarters: 90
[9]; Postemergence, 31 g ai/ha
  Plant response rating (scale of 0 to 100), Lambsquarters: 95
[9]; Postemergence, 62 g ai/ha
  Plant response rating (scale of 0 to 100), Lambsquarters: 95
[9]; [19]
  Lambsquarters plant response rating: 100
[10]; Postemergence, 16 g ai/ha
  Plant response rating (scale of 0 to 100), Velvetleaf: 70
[10]; Postemergence, 31 g ai/ha
  Plant response rating (scale of 0 to 100), Velvetleaf: 85
[10]; Postemergence, 62 g ai/ha
  Plant response rating (scale of 0 to 100), Velvetleaf: 85
[10]; [19]
  Velvetleaf plant response rating: 100
[11]; 16 g ai/ha
  Plant response rating (scale of 0 to 100), Chickweed: 0
[11]; 31 g ai/ha
  Plant response rating (scale of 0 to 100), Chickweed: 0
[11]; 62 g ai/ha
  Plant response rating (scale of 0 to 100), Chickweed: 10
[11]; 125 g ai/ha, scale 0 to 100 (0 no effect, 100 complete control)
  Chickweed plant response rating: 30
